# Results: patent US7432255B2, “1H-indol-5-yl-piperazin-1-yl-methanone derivatives” (Hoffmann-La Roche Inc., priority 2006, dated 2008)
# Target: T1, human H3R (Homo sapiens, UniProt Q9Y5N1)
# T1 construct: expressed in transfected cells; host or cells: CHO cells
# Assay: Binding assay with 3H-(R)α-methylhistamine (competition binding)
# Settings: competition binding vs 3H(R)α-methylhistamine (1 nM), membrane of the human H3R-CHO cell line; Ki calculated from IC50 by Cheng-Prusoff equation
# Experimental: Binding Assay with ^3H—(R)α-methylhistamine
# Saturation binding experiments were performed using HR3-CHO membranes prepared as described in Takahashi, K, Tokita, S., Kotani, H. (2003) J. Pharmacol. Exp. Therapeutics 307, 213-218.
# An appropriate amount of membrane (60 to 80 μg protein/well) was incubated with increasing concentrations of ^3H(R)α-Methylhistamine di-hydrochloride (0.10 to 10 nM). Non specific binding was determined using a 200 fold excess of cold (R)α-methyl-histamine dihydrobromide (500 nM final concentration). The incubation was carried out at room temperature (in deep-well plates shaking for three hours). The final volume in each well was 250 μl. The incubation was followed by rapid filtration on GF/B filters (pre-soaked with 100 μl of 0.5% PEI in Tris 50 mM shaking at 200 rpm for two hours). The filtration was made using a cell-harvester and the filter plates were then washed five times with ice cold washing buffer containing 0.5 M NaCl. After harvesting, the plates were dried at 55° C. for 60 min, then scintillation fluid (Microscint 40, 40 microl in each well) was added and the amount of radioactivity on the filter was determined in Packard top-counter after shaking the plates for two hours at 200 rpm at room temperature.
# Binding Buffer: 50 mM Tris-HCl pH 7.4 and 5 mM MgCl2×6H2O pH 7.4. Washing Buffer: 50 mM Tris-HCl pH 7.4 and 5 mM MgCl2×6H2O and 0.5 M NaCl pH 7.4.
# Indirect measurement of affinity of H3R inverse agonists: twelve increasing concentrations (ranging from 10 μM to 0.3 nM) of the selected compounds were always tested in competition binding experiments using membrane of the human H3R—CHO cell line. […]
# All compounds were tested at a single concentration in duplicate. […] Ki's were calculated from IC50 based on Cheng-Prusoff equation (Cheng, Y, Prusoff, W H (1973) Biochem Pharmacol 22, 3099-3108): Ki=IC50/[1+D/Kd] wherein D is the concentration of the radioligand and Kd is the binding constant for the radioligand binding to the receptor under the conditions used in the competition experiment.
# T1 sequence (Q9Y5N1 whole entry): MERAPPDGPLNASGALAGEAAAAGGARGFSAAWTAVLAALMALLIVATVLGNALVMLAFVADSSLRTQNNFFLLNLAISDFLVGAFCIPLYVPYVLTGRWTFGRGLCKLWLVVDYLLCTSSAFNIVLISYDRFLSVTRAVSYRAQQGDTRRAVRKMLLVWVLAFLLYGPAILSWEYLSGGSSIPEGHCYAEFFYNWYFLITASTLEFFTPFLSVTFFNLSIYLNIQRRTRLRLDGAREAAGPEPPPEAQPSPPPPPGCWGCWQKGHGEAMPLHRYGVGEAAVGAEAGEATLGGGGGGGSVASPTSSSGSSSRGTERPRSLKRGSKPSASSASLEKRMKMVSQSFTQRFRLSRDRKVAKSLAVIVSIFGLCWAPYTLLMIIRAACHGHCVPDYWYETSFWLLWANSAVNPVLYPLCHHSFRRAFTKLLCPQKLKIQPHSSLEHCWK
row,Ki [nM],SMILES
1,5.9,"CCN1CCC(n2ccc3cc(C(=O)N4CCN(C5CCCC5)CC4)ccc32)C1 (stereo not drawn) [Example 6, (4-cyclopentyl-piperazin-1-yl)-[1-(1-ethyl-pyrrolidin-3-yl)-1H-indol-5-yl]-methanone]"
2,12.1,"O=C(c1ccc2c(ccn2CC2CCCN(Cc3ccccc3)C2)c1)N1CCN(C2CCCC2)CC1 (stereo not drawn) [Example 11, [1-(1-benzyl-piperidin-3-ylmethyl)-1H-indol-5-yl]-(4-cyclopentyl-piperazin-1-yl)-methanone]"
3,15.4,"CC(C)N1CCN(C(=O)c2ccc3c(ccn3CCCN3CCCCC3C)c2)CC1 (stereo not drawn) [Example 59, (4-isopropyl-piperazin-1-yl)-{1-[3-(2-methyl-piperidin-1-yl)-propyl]-1H-indol-5-yl}-methanone]"
